In US20250115577A1, “BCL-2 Inhibitors” (Eil Therapeutics, Inc., priority 2021, published 2025):
Like-named read-outs stand apart in the source and are kept apart here.

Key:
BCL-2 = BCL-2 (Homo sapiens (Human), UniProt P10415); assay: BCL-2 TR-FRET Assay (primary PPI inhibition); type: binding; details: 60 min incubation, read-out: BCL2 IC50
Method in brief: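 His-tagged BCL-2 (3 ng) with anti-His Tb donor, dye-labeled acceptor and BCL-2 peptide ligand; compound added at 200× stock, final DMSO 0.5%. 60 min incubation, then TR-FRET read at 340 nm excitation, 620/665 nm emission, 60 µs delay, 500 µs integration.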

BCL-xL = BCL-xL (Homo sapiens (Human), UniProt Q07817); assay: BCL-xL TR-FRET Assay (primary PPI inhibition); type: binding; details: 60 min incubation, read-out: BCLxL IC50
Chain of BCL-xL (Q07817 whole entry): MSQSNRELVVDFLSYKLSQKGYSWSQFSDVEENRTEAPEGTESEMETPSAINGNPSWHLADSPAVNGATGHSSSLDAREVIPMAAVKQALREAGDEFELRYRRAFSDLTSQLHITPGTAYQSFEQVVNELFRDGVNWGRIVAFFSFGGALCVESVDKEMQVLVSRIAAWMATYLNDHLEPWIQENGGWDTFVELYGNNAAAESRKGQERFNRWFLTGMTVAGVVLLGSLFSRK
Method in brief: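 TR-FRET competition of His-tagged BCL-xL (10.5 ng) binding to dye-labeled peptide ligand, with anti-His Tb donor; compound added from 200× stock, 0.5% DMSO final. After 60 min incubation, read at 340 nm excitation, 620/665 nm emission, 60 µs delay, 500 µs integration.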

BCL-2 [G101V] = BCL-2 [G101V] (Homo sapiens (Human), UniProt P10415, G101V); assay: BCL-2 [G101V] TR-FRET Assay (primary PPI inhibition); type: binding; details: 60 min incubation, read-out: BCL2[G101V] IC50
Method: Example C. BCL-2 [G101V]TR-FRET Assay
The following assay concentrations and times were used: 0.22 ng/μl of BCL-2 (SinoBiological, #10195-H08E1), 5 μL of 1:100 anti-His Tb-labeled donor, 5 μL of 1:100 Dye-labeled acceptor, 5 μL of 1:40 BCL-2 Peptide Ligand (BPS Bioscience, #50223), and 2 μL of 200× test compound, with 60 min incubation time (final concentration of DMSO 0.5%). The results of the assay were read using a plate reader with the following parameters: TR FRET, 340ex/620 and 665em; 60 usec Delay; and 500 usec integration.
Instrumentation: CLARIOstar Plus (BMG LABTECH); Biomek FX for liquid handling (Beckman Coulter).

RS4-11 cells = assay: Cell viability assay (CellTiter-Glo), RS4-11; type: cell-based; details: 3 days of incubation
Method in brief: (§1)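 4000 cells/well in DMEM (HEK293, adhered overnight) or RPMI (RS4-11, MOLT-4) with 10% FBS; compounds added at 0.2% DMSO final. After 3 days, viability read by CellTiter-Glo luminescence.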

[1] = Cell viability assay (CellTiter-Glo), HEK293; type: cell-based; details: human, HEK293 cells, 3 days of incubation
Method in brief: as §1

MOLT-4 cells = assay: Cell viability assay (CellTiter-Glo), MOLT-4; type: cell-based; details: 3 days of incubation
Method in brief: as §1

[2] = test system: caspase-3 and -7 activities in RS4-11 cells; assay: Caspase-3/7 activation (Caspase-Glo 3/7) in RS4-11 cells; type: cell-based; details: 3.5 h, read-out: Cas-3/7 EC50
Method in brief: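 RS4-11 cells exposed to graded compound concentrations for 3.5 h at 37 °C, 5% CO2. Caspase-3/7 activity then read as luminescence after 30 min at rt with a DEVD-based luminogenic substrate reagent.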

HEK293 cells = assay: Cell viability assay (CellTiter-Glo), HEK293; type: cell-based; details: 3 days of incubation
Method in brief: as §1

Row | SMILES | IC50 (BCL-2) [nM] | IC50 (BCL-xL) [µM] | IC50 (BCL-2 [G101V]) [nM] | CC50 (RS4-11 cells; Homo sapiens, RS4-11, 72 h) [nM] | CC50 at 3 days [1] [µM] | CC50 (MOLT-4 cells; Homo sapiens, 72 h) [µM] | EC50 ([2]; Homo sapiens) [nM] | CC50 (RS4-11 cells) [nM] | CC50 (HEK293 cells) [µM] | CC50 (MOLT-4 cells) [µM] | EC50 [2] [nM]
1 | COc1cccc(CN(C(=O)c2cc(-c3cc(Cl)c(OC(F)F)cc3C(=O)N3Cc4ccccc4C[C@H]3CN3CCOCC3)n(C)c2C)c2ccc(O)cc2)c1C [Compound 36, 5-[5-chloro-4-(difluoromethoxy)-2-[(3S)-3-(morpholinomethyl)-3,4-dihydro-1H-isoquinoline-2-carbonyl]phenyl]-N-(4-hydroxyphenyl)-N-[(3-methoxy-2-methyl-phenyl)methyl]-1,2-dimethyl-pyrrole-3-carboxamide] | 5 to 10 | 2 to 5 | 100 to 1000 | > 200 | > 25 | 5 to 10 | > 500 | – | – | – | –
2 | Cc1c(C(=O)N(Cc2ccccc2C#N)c2ccc(O)cc2)cc(-c2cc(Cl)ccc2C(=O)N2Cc3ccccc3C[C@H]2CN2CCOCC2)n1C [Compound 6, 5-[5-chloro-2-[(3S)-3-(morpholinomethyl)-3,4-dihydro-1H-isoquinoline-2-carbonyl]phenyl]-N-[(2-cyanophenyl)methyl]-N-(4-hydroxyphenyl)-1,2-dimethyl-pyrrole-3-carboxamide] | ≤ 5 | ≤ 2 | ≤ 100 | 100 to 200 | 10 to 25 | 5 to 10 | 200 to 500 | – | – | – | –
3 | COc1cccc(CN(C(=O)c2cc(-c3cc(F)c(F)cc3C(=O)N3Cc4ccccc4C[C@H]3CN3CCOCC3)n(C)c2C)c2ccc(O)cc2)c1C [Compound 51, 5-[4,5-difluoro-2-[(3S)-3-(morpholinomethyl)-3,4-dihydro-1H-isoquinoline-2-carbonyl]phenyl]-N-(4-hydroxyphenyl)-N-[(3-methoxy-2-methyl-phenyl)methyl]-1,2-dimethyl-pyrrole-3-carboxamide] | 10 to 50 | 2 to 5 | 100 to 1000 | 100 to 200 | > 25 | ≤ 5 | 200 to 500 | – | – | – | –
4 | COc1cccc(CN(C(=O)c2cc(-c3cc(Cl)c(F)cc3C(=O)N3Cc4ccccc4C[C@H]3CN3CCOCC3)n(C)c2C)c2ccc(C#N)cc2)c1C [Compound 73, 5-[5-chloro-4-fluoro-2-[(3S)-3-(morpholinomethyl)-3,4-dihydro-1H-isoquinoline-2-carbonyl]phenyl]-N-(4-cyanophenyl)-N-[(3-methoxy-2-methyl-phenyl)methyl]-1,2-dimethyl-pyrrole-3-carboxamide] | > 50 | 2 to 5 | – | – | – | – | – | > 200 | 10 to 25 | > 10 | > 500
5 | Cc1c(C(=O)N(Cc2ccccc2C#N)c2ccc3[nH]ncc3c2)cc(-c2cc(Cl)ccc2C(=O)N2Cc3ccccc3C[C@H]2CN2CCOCC2)n1C [Compound 68, 5-[5-chloro-2-[(3S)-3-(morpholinomethyl)-3,4-dihydro-1H-isoquinoline-2-carbonyl]phenyl]-N-[(2-cyanophenyl)methyl]-N-(1H-indazol-5-yl)-1,2-dimethyl-pyrrole-3-carboxamide] | 10 to 50 | > 5 | > 1000 | > 200 | > 25 | > 10 | > 500 | – | – | – | –
6 | COc1cccc(CN(C(=O)c2cc(-c3cc(F)c(OC(F)F)cc3C(=O)N3Cc4ccccc4C[C@H]3CN3CCOCC3)n(C)c2C)c2ccc(O)cc2)c1C [Compound 16, 5-[4-(difluoromethoxy)-5-fluoro-2-[(3S)-3-(morpholinomethyl)-3,4-dihydro-1H-isoquinoline-2-carbonyl]phenyl]-N-(4-hydroxyphenyl)-N-[(3-methoxy-2-methyl-phenyl)methyl]-1,2-dimethyl-pyrrole-3-carboxamide] | 5 to 10 | 2 to 5 | > 1000 | > 200 | > 25 | ≤ 5 | 200 to 500 | – | – | – | –
7 | COc1cccc(CN(C(=O)c2cc(-c3cc(Cl)ccc3C(=O)N3Cc4ccccc4C[C@H]3CN3CCOCC3)n(C)c2C)c2ccc(O)cc2)c1C [Compound 7, 5-[5-chloro-2-[(3S)-3-(morpholinomethyl)-3,4-dihydro-1H-isoquinoline-2-carbonyl]phenyl]-N-(4-hydroxyphenyl)-N-[(3-methoxy-2-methyl-phenyl)methyl]-1,2-dimethyl-pyrrole-3-carboxamide] | ≤ 5 | 2 to 5 | ≤ 100 | ≤ 100 | 10 to 25 | 5 to 10 | ≤ 200 | – | – | – | –
8 | COc1cccc(CN(C(=O)c2cc(-c3cc(Cl)c(C#N)cc3C(=O)N3Cc4ccccc4C[C@H]3CN3CCOCC3)n(C)c2C)c2ccc(O)cc2)c1C [Compound 9, 5-[5-chloro-4-cyano-2-[(3S)-3-(morpholinomethyl)-3,4-dihydro-1H-isoquinoline-2-carbonyl]phenyl]-N-(4-hydroxyphenyl)-N-[(3-methoxy-2-methyl-phenyl)methyl]-1,2-dimethyl-pyrrole-3-carboxamide] | ≤ 5 | 2 to 5 | 100 to 1000 | > 200 | 10 to 25 | ≤ 5 | > 500 | – | – | – | –
9 | COc1cccc(CN(C(=O)c2cc(-c3cc(C(F)F)c(Cl)cc3C(=O)N3Cc4ccccc4C[C@H]3CN3CCOCC3)n(C)c2C)c2ccc(O)cc2)c1C [Compound 43, 5-[4-chloro-5-(difluoromethyl)-2-[(3S)-3-(morpholinomethyl)-3,4-dihydro-1H-isoquinoline-2-carbonyl]phenyl]-N-(4-hydroxyphenyl)-N-[(3-methoxy-2-methyl-phenyl)methyl]-1,2-dimethyl-pyrrole-3-carboxamide] | ≤ 5 | 2 to 5 | 100 to 1000 | > 200 | > 25 | ≤ 5 | > 500 | – | – | – | –
10 | COc1ccccc1CN(C(=O)c1cc(-c2cc(F)ccc2C(=O)N2Cc3ccccc3C[C@H]2CN2CCOCC2)n(C)c1C)c1ccc(O)cc1 [Compound 54, 5-[5-fluoro-2-[(3S)-3-(morpholinomethyl)-3,4-dihydro-1H-isoquinoline-2-carbonyl]phenyl]-N-(4-hydroxyphenyl)-N-[(2-methoxyphenyl)methyl]-1,2-dimethyl-pyrrole-3-carboxamide] | 5 to 10 | ≤ 2 | ≤ 100 | 100 to 200 | > 25 | ≤ 5 | > 500 | – | – | – | –
11 | COc1cccc(CN(C(=O)c2cc(-c3cc(Cl)c(F)cc3C(=O)N3Cc4ccccc4C[C@H]3CN3CCOCC3)n(C)c2C)c2ccc(C#N)cc2)c1C [Compound 29, 5-[5-chloro-4-fluoro-2-[(3S)-3-(morpholinomethyl)-3,4-dihydro-1H-isoquinoline-2-carbonyl]phenyl]-N-(4-cyanophenyl)-N-[(3-methoxy-2-methyl-phenyl)methyl]-1,2-dimethyl-pyrrole-3-carboxamide] | 10 to 50 | – | – | 100 to 200 | – | > 10 | > 500 | – | > 25 | – | –
12 | N#Cc1ccccc1CN(C(=O)c1cc(-c2cc(Cl)ccc2C(=O)N2Cc3ccccc3C[C@H]2CN2CCOCC2)n2c1CCCC2)c1ccc(O)cc1 [Compound 3, 3-[5-chloro-2-[(3S)-3-(morpholinomethyl)-3,4-dihydro-1H-isoquinoline-2-carbonyl]phenyl]-N-[(2-cyanophenyl)methyl]-N-(4-hydroxyphenyl)-5,6,7,8-tetrahydroindolizine-1-carboxamide] | ≤ 5 | > 5 | ≤ 100 | 100 to 200 | 10 to 25 | ≤ 5 | 200 to 500 | – | – | – | –
